Measurements published in patent US10781189B2, “1,2,4-Oxadiazole and thiadiazole compounds as immunomodulators” (Aurigene Discovery Technologies Limited, priority 2015, dated 2020).

Molecular target: T1, Recombinant mouse PD-L1 (Mus musculus, UniProt Q9EP73)
T1 construct: Fc (Fc chimera); purchased R&D Systems 1019-B7-100
Experiment: Rescue of mouse splenocyte proliferation in the presence of recombinant PD-L1 (CFSE proliferation assay)
Assay type: cell-based
Details: 100 nM compound; CFSE-labelled C57 BL6 mouse splenocytes + anti-CD3/CD28 + PD-L1 (100 ng/mL), 72 h; normalised to stimulated splenocytes as 100%; read-out: Percent rescue of splenocyte proliferation (@100 nM)
Method: Example 15: Rescue of Mouse Splenocyte Proliferation in the Presence of Recombinant PD-L1
Recombinant mouse PD-L1 (rm-PDL-1, cat no: 1019-B7-100; R&D Systems) were used as the source of PD-L1.
Mouse splenocytes harvested from 6-8 weeks old C57 BL6 mice; RPMI 1640 (GIBCO, Cat #11875); DMEM with high glucose (GIBCO, Cat # D6429); Fetal Bovine Serum [Hyclone, Cat # SH30071.03]; Penicillin (10000 unit/mL)-Streptomycin (10,000 μg/mL) Liquid (GIBCO, Cat #15140-122); MEM Sodium Pyruvate solution 100 mM (100×), Liquid (GIBCO, Cat #11360); Nonessential amino acid (GIBCO, Cat #11140); L-Glutamine (GIBCO, Cat #25030); Anti-CD3 antibody (eBiosciences—16-0032); Anti-CD28 antibody (eBiosciences—16-0281); ACK lysis buffer (1 mL) (GIBCO, Cat #-A10492); Histopaque (density-1.083 gm/mL) (SIGMA 10831); Trypan blue solution (SIGMA-T8154); 2 mL Norm Ject Luer Lock syringe-(Sigma 2014-12); 40 μm nylon cell strainer (BD FALCON 35230); Hemacytometer (Bright line-SIGMA Z359629); FACS Buffer (PBS/0.1% BSA): Phosphate Buffered Saline (PBS) pH 7.2 (HiMedia TS1006) with 0.1% Bovine Serum Albumin (BSA) (SIGMA A7050) and sodium azide (SIGMA 08591); 5 mM stock solution of CFSE: CFSE stock solution was prepared by diluting lyophilized CFSE with 180 μL of Dimethyl sulfoxide (DMSO C2H6SO, SIGMA-D-5879) and aliquoted in to tubes for further use. Working concentrations were titrated from 10 μM to 1 μM. (eBioscience—650850-85); 0.05% Trypsin and 0.02% EDTA (SIGMA 59417C); 96-well format ELISA plates (Corning CLS3390); BD FACS caliber (E6016); Recombinant mouse B7-H1/PDL1 Fc Chimera, (rm-PD-L1 cat no: 1019-B7-100).
Splenocytes harvested in a 50 mL falcon tube by mashing mouse spleen in a 40 μm cell strainer were further treated with 1 mL ACK lysis buffer for 5 min at room temperature. After washing with 9 mL of RPMI complete media, cells were re-suspended in 3 mL of 1×PBS in a 15 mL tube. 3 mL of Histopaque was added carefully to the bottom of the tube without disturbing overlaying splenocyte suspension. After centrifuging at 800×g for 20 min at room temperature, the opaque layer of splenocytes was collected carefully without disturbing/mixing the layers. Splenocytes were washed twice with cold 1×PBS followed by total cell counting using Trypan Blue exclusion method and used further for cell based assays.
Splenocytes were cultured in RPMI complete media (RPMI+10% fetal bovine serum+1 mM sodium pyruvate+10,000 units/mL penicillin and […] streptomycin) and maintained in a CO2 incubator with 5% CO2 at 37° C.
CFSE is a dye that passively diffuses into cells and binds to intracellular proteins. 1×10^6 cells/mL of harvested splenocytes were treated with 5 μM of CFSE in pre-warmed 1×PBS/0.1% BSA solution for 10 min at 37° C. Excess CFSE was quenched using 5 volumes of ice-cold culture media to the cells and incubated on ice for 5 min. CFSE labelled splenocytes were further given three washes with ice cold complete RPMI media. CFSE labelled 1×10^5 splenocytes added to wells containing either MDA-MB231 cells (1×10^5 cells cultured in high glucose DMEM medium) or recombinant human PDL-1 (100 ng/mL) and test compounds. Splenocytes were stimulated with anti-mouse CD3 and anti-mouse CD28 antibody (1 μg/mL each) and the culture was further incubated for 72 h at 37° C. with 5% CO2. Cells were harvested and washed thrice with ice cold FACS buffer and % proliferation was analysed by flow cytometry with 488 nm excitation and 521 nm emission filters.
Percent splenocyte proliferation was analysed using cell quest FACS program and percent rescue of splenocyte proliferation by compound was estimated after deduction of % background proliferation value and normalising to % stimulated splenocyte proliferation (positive control) as 100%.
Stimulated splenocytes: Splenocytes+anti-CD3/CD28 stimulation
Background proliferation: Splenocytes+anti-CD3/CD28+PD-L1
Compound proliferation: Splenocytes+anti-CD3/CD28+PD-L1+Compound […]

T1 sequence (Q9EP73 with tags, fused parts or gaps limits assumed): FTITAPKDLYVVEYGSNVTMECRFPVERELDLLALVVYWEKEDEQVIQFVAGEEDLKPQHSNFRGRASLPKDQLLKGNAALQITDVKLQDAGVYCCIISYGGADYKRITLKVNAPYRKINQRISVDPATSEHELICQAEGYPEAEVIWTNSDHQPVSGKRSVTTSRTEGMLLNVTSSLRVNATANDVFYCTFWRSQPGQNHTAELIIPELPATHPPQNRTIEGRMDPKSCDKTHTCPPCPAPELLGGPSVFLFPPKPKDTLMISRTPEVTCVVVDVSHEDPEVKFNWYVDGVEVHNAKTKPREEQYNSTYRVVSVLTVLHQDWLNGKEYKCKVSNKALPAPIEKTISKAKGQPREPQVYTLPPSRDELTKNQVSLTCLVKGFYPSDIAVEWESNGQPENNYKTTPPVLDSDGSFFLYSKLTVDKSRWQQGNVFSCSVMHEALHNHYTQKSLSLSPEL

Compound	activation at 0.1 µM [%]
NCCCC[C@H](N)c1noc([C@H](CCC(N)=O)NS(=O)(=O)N[C@@H](CO)C(=O)O)n1 [Compound 103]	79
N[C@@H](Cc1ccc(O)cc1)c1noc([C@@H]2C(O)CCN2C(=O)N[C@@H](Cc2ccc(O)cc2)C(=O)O)n1 (some centres unmarked) [Compound 19]	54
NCCCC[C@H](NC(=O)N[C@@H](CC(N)=O)c1nc([C@@H](N)CO)no1)C(=O)O [Compound 5]	38
CC(O)[C@H](NC(=O)N1CCC[C@H]1c1nc([C@@H](N)Cc2ccc(O)cc2)no1)C(=O)O (some centres unmarked) [Compound 21]	51
CCCCCCNC(=O)CC[C@H](NC(=O)N[C@@H](CCC(N)=O)C(=O)N[C@H](C(=O)O)C(C)O)c1nc([C@@H](N)CO)no1 (some centres unmarked) [Compound 78]	42
CC(O)[C@H](NC(=O)N[C@@H](CC(N)=O)c1nc([C@@H](N)Cc2ccccc2)no1)C(=O)O (some centres unmarked) [Compound 13]	62
C[C@H](NC(=O)N[C@@H](C)c1nc([C@H](C)N)no1)C(=O)O [Compound 1]	76
CC(O)[C@H](NC(=O)N[C@@H](CCC(=O)O)c1nc([C@@H](N)CCCCN)no1)C(=O)O (some centres unmarked) [Compound 38]	52
CCCCCOC(=O)[C@@H](NC(=O)N[C@@H](CC(N)=O)c1nc([C@@H](N)CO)no1)C(C)O (some centres unmarked) [Compound 80]	55
CC(O)[C@H](NC(=O)N[C@@H](CCCCN)c1nc([C@@H](N)CO)no1)C(=O)O (some centres unmarked) [Compound 11]	66
CC(O)[C@H](NC(=O)N[C@H](c1nc([C@@H](N)CO)no1)C(C)C)C(=O)O (some centres unmarked) [Compound 44]	71
N[C@@H](CCC(=O)O)c1noc([C@@H]2CCCN2C(=O)N[C@@H](CC(=O)O)C(=O)O)n1 [Compound 24]	17
CC(O)[C@H](NC(=O)N[C@@H](CC(N)=O)c1nc([C@@H](N)CO)no1)C(=O)Nc1ccc2c(c1)OCCO2 (some centres unmarked) [Compound 51]	20
CC(O)[C@H](NC(=O)N[C@@H](CC(=O)O)c1nc([C@@H](N)Cc2cnc[nH]2)no1)C(=O)O (some centres unmarked) [Compound 34]	59
NCCCC[C@H](NC(=O)N[C@@H](CC(=O)O)c1nc([C@@H](N)Cc2cnc[nH]2)no1)C(=O)O [Compound 35]	66
CC(O)[C@H](NC(=O)N1CCC[C@H]1c1nc([C@@H](N)CO)no1)C(=O)O (some centres unmarked) [Compound 6]	69
NCCCC[C@H](N)c1noc([C@H](CCC(=O)O)NC(=O)N[C@@H](CO)C(=O)O)n1 [Compound 37]	60
N=C(N)NCCC[C@H](N)c1noc([C@H](CC(=O)O)NC(=O)N[C@@H](CO)C(=O)O)n1 [Compound 30]	65
CC(C)[C@H](NC(=O)N[C@@H](CC(N)=O)c1nc([C@@H](N)CCCCN)no1)C(=O)O [Compound 45]	17
CC(O)[C@H](NC(=O)N[C@@H](CC(=O)O)c1nc([C@@H](N)CCCNC(=N)N)no1)C(=O)O (some centres unmarked) [Compound 32]	70
CC(O)[C@H](NC(=O)N[C@@H](CC(N)=O)c1nc([C@@H](N)CCCCN)no1)C(=O)O (some centres unmarked) [Compound 8]	48
CC(O)[C@H](NC(=O)N[C@@H](Cc1ccccc1)c1nc([C@@H](N)CO)no1)C(=O)O (some centres unmarked) [Compound 14]	92
N[C@@H](CC(=O)O)c1noc([C@@H]2CCCN2C(=O)N[C@@H](CC(=O)O)C(=O)O)n1 [Compound 23]	49
CC(O)[C@H](NC(=O)N[C@@H](CC(N)=O)c1nc([C@@H](N)C(C)C)no1)C(=O)O (some centres unmarked) [Compound 40]	67
N[C@@H](CO)c1noc([C@H](CO)NC(=O)N[C@@H](CO)C(=O)O)n1 [Compound 47]	49
CCN(Cc1ccccc1)C(=O)N[C@@H](CC(N)=O)c1nc([C@@H](N)CO)no1 (stereo in doubt) [Compound 94]	97
CSCC[C@H](N)c1noc([C@H](CC(N)=O)NC(=O)N[C@@H](CC(=O)O)C(=O)O)n1 [Compound 46]	53
C[C@@H](O)[C@H](NC(=O)N[C@@H](CC(N)=O)c1nc([C@@H](N)Cc2c[nH]c3ccccc23)no1)C(=O)O (stereo in doubt) [Compound 41]	78

The next lines start with the values.

activation at 0.1 µM [%]	Compound
67	CCCCCCNC(=O)CC[C@@H](NC(=O)N[C@H](C(=O)O)C(C)O)c1nc([C@@H](N)CO)no1 (some centres unmarked) [Compound 76]
50	CCC(C)[C@H](NC(=O)N[C@H](C(=O)O)C(C)O)c1nc([C@@H](N)CO)no1 (some centres unmarked) [Compound 16]
28	CC(O)[C@H](NC(=O)N[C@@H](CC(N)=O)c1nc([C@H](C)N)no1)C(=O)O (some centres unmarked) [Compound 15]
71	NC(=O)C[C@H](NS(=O)(=O)C1CC1)c1nc([C@@H](N)CO)no1 [Compound 84]
57	C[C@H](NC(=O)N[C@@H](CC(N)=O)c1nc([C@@H](N)CO)no1)C(=O)O [Compound 18]
68	NCCCC[C@H](N)c1noc([C@H](CCC(N)=O)NC(=O)N[C@@H](CO)C(=O)O)n1 [Compound 36]
36	NC(=O)CC[C@H](NC(=O)N[C@@H](CC(N)=O)c1nc([C@@H](N)CO)no1)C(=O)O [Compound 28]
50	CC(O)[C@H](NC(=O)N[C@@H](CC(N)=O)c1nc([C@@H](N)Cc2ccc(O)cc2)no1)C(=O)O (some centres unmarked) [Compound 42]
84	CCC(C)[C@H](NC(=O)N[C@@H](CCC(=O)O)C(=O)O)c1nc([C@@H](N)CCC(N)=O)no1 (some centres unmarked) [Compound 10]
30	Cn1cc(CN[C@@H](CC(N)=O)c2nc([C@@H](N)CO)no2)cn1 [Compound 95]
68	CC(O)[C@H](NC(=O)N[C@@H](CC(N)=O)c1nc([C@@H](N)CCC(=O)O)no1)C(=O)O (some centres unmarked) [Compound 2]
75	CCCCCCNC(=O)C[C@H](NC(=O)N[C@H](C(=O)O)C(C)O)c1nc([C@@H](N)CO)no1 (some centres unmarked) [Compound 77]
54	NC(=O)C[C@H](NS(=O)(=O)C1CCCCC1)c1nc([C@@H](N)CO)no1 [Compound 89]
18	CC(O)[C@H](NC(=O)[C@H](CCC(N)=O)NC(=O)N[C@@H](CC(N)=O)c1nc([C@@H](N)CO)no1)C(=O)O (some centres unmarked) [Compound 81]
12	CC(C)C[C@H](N)c1noc([C@H](CC(N)=O)NC(=O)CNC(=O)N[C@H](C(=O)O)C(C)O)n1 (some centres unmarked) [Compound 82]
42	NCCCC[C@H](N)c1noc([C@H](CC(N)=O)NC(=O)N[C@@H](CO)C(=O)O)n1 [Compound 31]
35	CC(O)[C@H](N)c1noc([C@H](Cc2ccccc2)NC(=O)N2CCC[C@H]2C(=O)O)n1 (some centres unmarked) [Compound 62]
37	CC(=O)NCCCC[C@H](NC(=O)N[C@H](C(=O)O)C(C)O)c1nc([C@@H](N)CO)no1 (some centres unmarked) [Compound 27]
99	CC(O)[C@H](N)c1noc([C@H](Cc2ccc(O)cc2)NC(=O)N2CCC[C@H]2C(=O)O)n1 (some centres unmarked) [Compound 60]
